Data reported in patent publication EP1082127B1 (WARNER-LAMBERT COMPANY LLC, priority 1998, dated 1999).

Columns and labels:
ICE [1] = target: T1, ICE (Homo sapiens, UniProt P29466); test: ICE Colorimetric Dose-Response (IC50) Assay; assay type: biochemical; settings: 60 minutes preincubation, 50 µM Ac-Tyr-Val-Ala-Asp-pNA, 25°C
T1 sequence (P29466 120-297 limits assumed): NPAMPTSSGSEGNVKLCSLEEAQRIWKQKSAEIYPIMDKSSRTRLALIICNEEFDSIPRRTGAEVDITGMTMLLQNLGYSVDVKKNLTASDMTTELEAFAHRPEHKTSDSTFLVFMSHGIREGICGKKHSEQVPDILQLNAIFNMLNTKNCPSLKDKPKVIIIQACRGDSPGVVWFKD
T1 sequence (P29466 317-404 limits assumed): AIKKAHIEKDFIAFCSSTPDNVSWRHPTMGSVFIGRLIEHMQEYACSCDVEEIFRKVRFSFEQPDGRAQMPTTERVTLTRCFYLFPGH
Method in brief: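 Human ICE (~24 nM in HGE buffer, pH 7.5, activated with 5 mM DTT) preincubated 60 min at ambient temperature with two-fold serial inhibitor dilutions, in triplicate. Ac-Tyr-Val-Ala-Asp-pNA added at 50 µM; A405 followed for 1 h at 25°C starting 5 min after substrate, activity taken as mean rate.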

[2] = system: IL-1β production in human peripheral blood mononuclear cells (PBMCs); test: PBMC Cellular Assay - IC50 Determinations (LPS-stimulated IL-1β production, ELISA); assay type: cell-based; settings: human PBMCs stimulated overnight with 10 ng/mL LPS, mature IL-1β by ELISA
Method in brief: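 Ficoll-isolated human PBMCs (10^6/well, RPMI with 2% human AB serum) were stimulated overnight with LPS 10 ng/mL (E. coli 0111:B4) with or without compound. Mature IL-1β in medium measured by ELISA; viability checked by MTT over a further 4 h.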

Ich-2 enzyme = target: T2, Ich-2 enzyme (Homo sapiens, UniProt P49662); test: Ich-2 Colorimetric Dose-Response (IC50) Assay; assay type: biochemical; settings: enzyme 64 nM, 60 µM Ac-Leu-Glu-Val-Asp-pNA; read-out: ICH2 IC50 (Caspase 4)
T2 sequence (P49662 81-270 limits assumed): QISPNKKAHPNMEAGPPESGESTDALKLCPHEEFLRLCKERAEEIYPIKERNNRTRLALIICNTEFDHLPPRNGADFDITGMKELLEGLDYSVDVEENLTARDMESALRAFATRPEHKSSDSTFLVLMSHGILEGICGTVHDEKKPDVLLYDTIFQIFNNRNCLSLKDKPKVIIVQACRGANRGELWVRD
T2 sequence (P49662 290-377 limits assumed): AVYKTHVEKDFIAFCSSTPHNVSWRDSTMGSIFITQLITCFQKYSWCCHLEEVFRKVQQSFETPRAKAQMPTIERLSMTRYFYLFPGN
Method in brief: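 Enzyme at 64 nM in HGE buffer (Hepes pH 7.5, EDTA, glycerol, BSA), activated with 5 mM DTT, preincubated 60 min at ambient temperature with two-fold serially diluted inhibitor, in triplicate. Ac-Leu-Glu-Val-Asp-pNA added at 60 µM; A405 followed for 1 h at 25°C, rate used as activity.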

ICE [3] = target: T1, ICE; test: ICE inhibition, Ki determination (fluorogenic substrate Ac-Tyr-Val-Ala-Asp-AMC); assay type: biochemical; settings: 15 µM Ac-Tyr-Val-Ala-Asp-AMC, 0.5 nM enzyme, 30°C, reversible competitive model

Row | Structure (SMILES) | IC50 (ICE [1]) [nM] | IC50 (Ich-2 enzyme) [nM] | Ki (ICE [3]) [nM] | IC50 [2] [nM]
1 | CC(C)C(CC(=O)NCCc1nnn[nH]1)C(=O)NC(CC(=O)O)C(=O)CNS(=O)(=O)CC12CCC(CC1=O)C2(C)C (centres unmarked) [Example 34, 5-(7,7-Dimethyl-2-oxo-bicyclo[2.2.1]hept-1-ylmethanesulfonylamino)-3-(3-methyl-2-{[2-(1H-tetrazol-5-yl)-ethylcarbamoyl]-methyl}-butyrylamino)-4-oxo-pentanoic acid] | 115 | 1100 | 16.6 | 2600
2 | CCOC1OC(=O)CC1NC(=O)[C@@H](CC(=O)NCCn1cnc2cc(Cl)c(Cl)cc21)C(C)C (some centres unmarked) [Example 38, N^4-[2-(5,6-Dichloro-benzoimidazol-1-yl)-ethyl]-N^1-(2-ethoxy-5-oxo-tetrahydro-furan-3-yl)-2-isopropyl-succinamide] | 377 | 18700 | 16.4 | 3400
3 | CC(C)C(CC(=O)NCCn1cnc2ccccc21)C(=O)NC(C=O)CC(=O)O (centres unmarked) [Example 53, 3-{2-[(2-Benzoimidazol-1-yl-ethylcarbamoyl)-methyl]-3-methyl-butyrylamino}-4-oxo-butyric acid] | 73.7 | 32500 | 20 | 8300
4 | CC(C)C(CC(=O)NCCc1cn(C)c2ccccc12)C(=O)NC(C=O)CC(=O)O (centres unmarked) [Example 54, 3-(3-Methyl-2-{[2-(1-methyl-1H-indol-3-yl)-ethylcarbamoyl]-methyl}-butyrylamino)-4-oxo-butyric acid] | 37 | 11100 | 4 | 2850
5 | CC(C)C(CC(=O)NCCc1cn(C)c2ccc(F)cc12)C(=O)NC(C=O)CC(=O)O (centres unmarked) [Example 55, 3-(2-{[2-(5-Fluoro-1-methyl-1H-indol-3-yl)-ethylcarbamoyl]-methyl}-3-methyl-butyrylamino)-4-oxo-butyric acid] | 37 | 11500 | 7.9 | 5300
6 | CC(C)[C@H](CC(=O)NCCn1cnc2cc(Cl)c(Cl)cc21)C(=O)NC(C=O)CC(=O)O (some centres unmarked) [Example 56, 3-(2-{[2-(5,6-Dichloro-benzoimidazol-1-yl)-ethylcarbamoyl]-methyl}-3-methyl-butyrylamino)-4-oxo-butyric acid] | 28.6 | 4020 | 4.4 | 3250
7 | CC(C)C(CC(=O)NCCn1nnc2ccccc21)C(=O)NC(C=O)CC(=O)O (centres unmarked) [Example 58, 3-{2-[(2-Benzotriazol-1-yl-ethylcarbamoyl)-methyl]-3-methyl-butyrylamino}-4-oxo-butyric acid] | 336 | 10600 | 31.8 | 7750
8 | CC(C)C(CC(=O)NCCn1ncc2ccccc21)C(=O)NC(C=O)CC(=O)O (centres unmarked) [Example 59, 3-{2-[(2-Indazol-1-yl-ethylcarbamoyl)-methyl]-3-methyl-butyrylamino}-4-oxo-butyric acid] | 56.6 | 10400 | 33.2 | 3750

Continued by falling IC50 (ICE [1]), values first:

Row | IC50 (ICE [1]) [nM] | IC50 (Ich-2 enzyme) [nM] | Ki (ICE [3]) [nM] | Structure (SMILES) | IC50 [2] [nM]
9 | 750 | 174000 | 37 | CCOC1OC(=O)CC1NC(=O)C(CC(=O)NCCc1c[nH]c2c(C)cccc12)C(C)C (centres unmarked) [Example 45, N^1-(2-Ethoxy-5-oxo-tetrahydro-furan-3-yl)-N^4-[2-(7-methyl-1H-indol-3-yl)-ethyl]-2-isopropyl-succinamide] | 2600
10 | 599 | 101000 | 630 | CCOC1OC(=O)CC1NC(=O)C(CC(=O)NCCc1c[nH]c2ccccc12)C(C)C (centres unmarked) [Example 36, N^1-(2-Ethoxy-5-oxo-tetrahydro-furan-3-yl)-N^4-[2-(1H-indol-3-yl)-ethyl]-2-isopropyl-succinamide] | 1300
11 | 581 | 128000 | 29.7 | CCOC1OC(=O)CC1NC(=O)C(CC(=O)NCCc1cn(C)c2ccccc12)C(C)C (centres unmarked) [Example 37, N^1-(2-Ethoxy-5-oxo-tetrahydro-furan-3-yl)-2-isopropyl-N^4-[2-(1-methyl-1H-indol-3-yl)-ethyl]-succinamide] | 2000
12 | 468 | 12700 | 9.2 | Cc1cc2ncn(CCN(C)C(=O)CC(C(=O)NC(C=O)CC(=O)O)C(C)C)c2cc1C (centres unmarked) [Example 60, 3-[2-({[2-(5,6-Dimethyl-benzoimidazol-1-yl)-ethyl]-methylcarbamoyl}-methyl)-3-methyl-butyrylamino]4-oxo-butyric acid] | 5000
13 | 438 | 367000 | 28.4 | CCOC1OC(=O)CC1NC(=O)C(CC(=O)NCCn1c(C)nc2ccccc21)C(C)C (centres unmarked) [Example 46, N^1-(2-ethoxy-5-oxotetrahydro-furan-3-yl)-2-isopropyl-N^4-[2-(2-methyl-benzoimidazol-1-yl)-ethyl]-succinamide] | 6500
14 | 227 | 38000 | 22.9 | CC(C)C(CC(=O)N(C)CCn1cnc2ccccc21)C(=O)NC(C=O)CC(=O)O (centres unmarked) [Example 57, 3-(2-{[(2-Benzoimidazol-1-yl-ethyl)-methyl-carbamoyl]-methyl}-3-methyl-butyrylamino)-4-oxo-butyric acid] | 3750
